# Assays:
# RARβ = biological target: T1, RARβ (Homo sapiens, UniProt P10826); assay: ligand binding assay, RARβ; settings: second entry of cell, read-out: RAR Bind. Ki (nM) β
# T1 sequence (P10826 1-455): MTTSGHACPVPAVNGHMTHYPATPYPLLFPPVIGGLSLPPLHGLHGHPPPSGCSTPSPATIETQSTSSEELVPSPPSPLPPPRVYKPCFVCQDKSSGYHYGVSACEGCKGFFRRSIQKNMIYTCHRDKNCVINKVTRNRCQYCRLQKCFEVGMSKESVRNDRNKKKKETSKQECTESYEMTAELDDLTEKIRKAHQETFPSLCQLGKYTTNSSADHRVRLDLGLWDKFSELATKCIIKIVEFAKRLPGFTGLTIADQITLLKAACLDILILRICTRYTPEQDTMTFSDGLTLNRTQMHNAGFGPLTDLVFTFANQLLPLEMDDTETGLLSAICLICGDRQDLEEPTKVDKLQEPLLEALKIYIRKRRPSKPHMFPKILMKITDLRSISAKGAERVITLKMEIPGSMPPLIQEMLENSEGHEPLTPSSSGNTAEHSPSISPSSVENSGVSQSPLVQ
# Text: (§1) A holoreceptor transactivation assay and a ligand binding assay which measure the antagonist/agonist like activity of the compounds of the invention, or their ability to bind to the several retinoid receptor subtypes, respectively, are described in published PCT Application No. WO WO93/11755 (particularly on pages 30-33 and 37-41) published on Jun. 24, 1993, the specification of which is also incorporated herein by reference. A detailed experimental procedure for holoreceptor transactivations has been described by Heyman et al. Cell 68, 397-406, (1992); Allegretto et al. J. Biol. Chem. 268, 26625-26633, and Mangelsdorf et al. The Retinoids: Biology, Chemistry and Medicine, pp 319-349, Raven Press Ltd., New York, which are expressly incorporated herein by reference. The results obtained in this assay are expressed in EC50 numbers, as they are also in the chimeric receptor transactivation assay. The results of ligand binding assay are expressed in Kd numbers. (See Cheng et al. Biochemical Pharmacology Vol. 22 pp 3099-3108, expressly incorporated herein by reference.)
# RARγ = biological target: T2, RARγ (Homo sapiens, UniProt P13631); assay: ligand binding assay, RARγ; settings: second entry of cell, read-out: RAR Bind. Ki (nM) γ
# T2 sequence (P13631 1-454): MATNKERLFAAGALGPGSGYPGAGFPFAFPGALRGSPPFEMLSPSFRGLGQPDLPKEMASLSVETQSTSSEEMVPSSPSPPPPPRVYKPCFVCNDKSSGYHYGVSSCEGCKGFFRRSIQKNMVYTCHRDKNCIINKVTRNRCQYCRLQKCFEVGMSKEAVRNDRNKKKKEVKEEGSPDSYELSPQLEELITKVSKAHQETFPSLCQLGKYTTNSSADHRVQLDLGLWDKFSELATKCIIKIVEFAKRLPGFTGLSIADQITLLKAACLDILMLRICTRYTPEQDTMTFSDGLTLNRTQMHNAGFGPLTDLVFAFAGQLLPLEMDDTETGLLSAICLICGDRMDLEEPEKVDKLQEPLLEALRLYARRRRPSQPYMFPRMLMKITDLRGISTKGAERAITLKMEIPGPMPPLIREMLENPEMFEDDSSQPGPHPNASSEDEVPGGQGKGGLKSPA
# Text: as §1
# RXRα = biological target: T3, RXRα (Homo sapiens, UniProt P19793); assay: receptor transactivation assay, RXRα; format: cell-based; settings: first entry of cell, read-out: RXR Trans. EC50 (nM) α
# T3 construct: the only RXRα plasmid printed
# T3 sequence (P19793 227-462 limits assumed): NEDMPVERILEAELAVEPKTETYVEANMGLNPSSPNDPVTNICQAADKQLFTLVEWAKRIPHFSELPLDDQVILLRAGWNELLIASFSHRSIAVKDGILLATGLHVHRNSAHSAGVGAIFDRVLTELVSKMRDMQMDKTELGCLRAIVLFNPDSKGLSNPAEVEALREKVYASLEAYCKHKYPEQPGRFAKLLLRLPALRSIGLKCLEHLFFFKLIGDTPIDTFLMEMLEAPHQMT
# Text: as §1
# RXRβ = biological target: T4, RXRβ (UniProt P28704); assay: ligand binding assay, RXRβ; design: other: RXRβ; last entry of cell; settings: last entry of cell, read-out: RXR Bind Ki (nM) β
# T4 sequence (P28704 1-520): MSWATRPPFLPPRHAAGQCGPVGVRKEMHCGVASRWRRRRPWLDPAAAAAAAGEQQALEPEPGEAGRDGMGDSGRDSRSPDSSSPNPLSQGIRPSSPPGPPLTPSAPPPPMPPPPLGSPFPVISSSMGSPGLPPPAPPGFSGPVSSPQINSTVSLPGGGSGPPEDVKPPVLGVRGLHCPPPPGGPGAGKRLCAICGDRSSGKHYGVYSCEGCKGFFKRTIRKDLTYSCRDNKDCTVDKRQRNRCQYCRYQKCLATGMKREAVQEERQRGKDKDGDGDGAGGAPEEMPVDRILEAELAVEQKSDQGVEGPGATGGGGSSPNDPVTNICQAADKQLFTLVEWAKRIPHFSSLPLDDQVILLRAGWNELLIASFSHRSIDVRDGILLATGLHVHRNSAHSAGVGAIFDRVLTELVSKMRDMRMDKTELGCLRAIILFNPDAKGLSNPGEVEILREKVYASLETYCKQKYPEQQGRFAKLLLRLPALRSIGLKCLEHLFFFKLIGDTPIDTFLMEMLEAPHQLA
# Text: as §1
# RXRγ [1] = biological target: T5, RXRγ (UniProt P28705); assay: ligand binding assay, RXRγ; design: other: RXRγ; last entry of cell; settings: last entry of cell, read-out: RXR Bind Ki (nM) γ
# T5 sequence (P28705 1-463): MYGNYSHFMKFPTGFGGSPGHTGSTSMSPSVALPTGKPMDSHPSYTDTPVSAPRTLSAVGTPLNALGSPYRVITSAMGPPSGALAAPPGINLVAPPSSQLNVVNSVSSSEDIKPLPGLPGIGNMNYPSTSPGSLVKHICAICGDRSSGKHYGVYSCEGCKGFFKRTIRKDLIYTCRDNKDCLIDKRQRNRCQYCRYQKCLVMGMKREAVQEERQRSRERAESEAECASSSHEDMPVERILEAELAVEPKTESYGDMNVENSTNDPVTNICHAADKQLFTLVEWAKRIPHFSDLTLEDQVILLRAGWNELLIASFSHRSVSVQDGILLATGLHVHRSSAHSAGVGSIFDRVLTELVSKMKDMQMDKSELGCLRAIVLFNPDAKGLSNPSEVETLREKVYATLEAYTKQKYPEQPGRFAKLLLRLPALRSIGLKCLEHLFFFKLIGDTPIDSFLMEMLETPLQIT
# Text: as §1
# RXRγ [2] = biological target: T5, RXRγ; assay: receptor transactivation assay, RXRγ; format: cell-based; design: RXR Trans; other: RXRγ; first entry of cell; settings: for EC50: first entry of cell, read-out: RXR Trans. EC50 (nM) γ; for RXR Trans. γ, number in parentheses after EC50: parenthesised number, not defined in the patent
# Text: as §1
SMILES,Ki (RARβ),Ki (RARγ),EC50 (RXRα),Ki (RXRβ),Ki (RXRγ [1]),EC50 (RXRγ [2]),"RXR Trans. γ, number in parentheses after EC50 (RXRγ [2])"
"CC(/C=C/[C@@H]1C[C@]1(C)c1cc(-c2ccccc2C)c2c(c1)C(C)(C)CO2)=C\C(=O)O [Compound 26, 5-[(1S,2S)-2-(3,3-Dimethyl-7-o-tolyl-2,3-dihydro-benzofuran-5-yl)-2-methyl-cyclopropyl]-3-methyl-penta-2E,4E-dienoic acid]",> 10000 nM,> 10000 nM,0.2 nM,1.9 nM,6.1 nM,0.32 nM,107
"COc1ccc(-c2cc([C@@]3(C)C[C@H]3/C=C/C(C)=C/C(=O)O)cc3c2OCC3(C)C)cc1 [Compound 32, (E)-3-((E)-2-{(1S,2S)-2-[7-(4-Methoxy-phenyl)-3,3-dimethyl-2,3-dihydro-benzofuran-5-yl]-2-methyl-cyclopropyl}-vinyl)-but-2-enoic acid]",15000 nM,> 10000 nM,581 nM,926 nM,227 nM,561 nM,106
"CC(/C=C/[C@@H]1C[C@]1(C)c1cc(C(C)(C)C)c2c(c1)C(C)(C)CO2)=C\C(=O)O [Compound 10, (6S,7S)-7-[5-(3,3-Dimethyl-7-t-butyl-2,3-dihydro-benzofuranyl)]-6,7-methano-3-methyl-octa-2E,4E-dienoic acid]",19000 nM,13000 nM,0.55 nM,7.1 nM,1.3 nM,0.78 nM,95
"CC(/C=C/[C@@H]1C[C@]1(C)c1cc(CC(C)(C)C)c2c(c1)C(C)(C)CO2)=C\C(=O)O [Compound 12, 5-{(1S,2S) 2-[7-(2,2-Dimethyl-propyl)-3,3-dimethyl-2,3-dihydro-benzofuran-5-yl]-2-methyl-cyclopropyl}-3-methyl-penta-2E,4E-dienoic Acid]",9510 nM,8910 nM,0.246 nM,1.5 nM,0.7 nM,0.42 nM,101
"CC(/C=C/[C@@H]1C[C@]1(C)c1ccc2c(c1)C(C)(C)CO2)=C\C(=O)O [Compound 2, (6S,7S)-7-[5-(3,3-Dimethyl-2,3-dihydro-benzofuranyl)]-6.7-methano-3-methyl-octa-2E,4E-dienoic Acid]",> 10000 nM,> 10000 nM,1.1 nM,21.1 nM,35 nM,2.7 nM,119

# More lines, now with the values ahead:
Ki (RARβ),Ki (RARγ),EC50 (RXRα),Ki (RXRβ),Ki (RXRγ [1]),EC50 (RXRγ [2]),"RXR Trans. γ, number in parentheses after EC50 (RXRγ [2])",SMILES
22000 nM,> 10000 nM,330 nM,69 nM,70 nM,395 nM,94,CCCCC(=O)CCc1cc([C@@]2(C)C[C@H]2/C=C/C(C)=C/C(=O)O)cc2c1OCC2(C)C [Compound 40]
4770 nM,6650 nM,0.086 nM,1.1 nM,9.2 nM,0.0973 nM,105,"CC(/C=C/[C@@H]1C[C@]1(C)c1cc(Cc2ccccc2)c2c(c1)C(C)(C)CO2)=C\C(=O)O [Compound 14, (6S,7S)-7-[5-(7-Benzyl-3,3-dimethyl-2,3-dihydro-benzofuranyl)]-6,7-methano-3-methyl-octa-2E,4E-dienoic Acid]"
> 10000 nM,> 10000 nM,2.9 nM,74 nM,9.9 nM,4.4 nM,108,"CC(/C=C/[C@@H]1C[C@]1(C)c1cc(C)c2c(c1)C(C)(C)CO2)=C\C(=O)O [Compound 4, (6S,7S)-7-[5-(3,3,7-Trimethyl-2,3-dihydro-benzofuranyl)]-6,7-methano-3-methyl-octa-2E,4E-dienoic acid]"

# Source: patent publication US6720423B2, “Dihydrobenzofuran and dihydrobenzothiophene 2,4-pentadienoic acid derivatives having selective activity for retinoid X (RXR) receptors” (Allergan, Inc., priority 2002, dated 2004)
